Patent US8389768B2, “Methods and compositions comprising novel cationic lipids” (The University of North Carolina at Chapel Hill, priority 2008, dated 2013)
Read-outs that look alike come from different tables or passages of the source.

Tests used:
H460 cells [1] = assay: Chemosensitization study with cisplatin (MTT assay); assay type: cell-based, human; details: 48 h
Method: (§1) The cell viability values shown are the averages of triplicate experiments performed on the same day. […] Data=mean, n=3.
H460 cells (1×10^4 per well) were seeded into 12-well plates. Cells were incubated with different lipids at 10 μM and cisplatin (Sigma-Aldrich, St. Louis, Mo.) at different concentrations in serum-containing medium at 37° C. Cell viability was detected by the MTT assay 48 h later.
(§2) The cytotoxic effects of the three novel lipids at various concentrations were assessed in H460 cells after exposure to lipids 1-3 and DOTAP for 48 h using the MTT assay (FIG. 5A). […] To assess the chemo-sensitization ability of these lipids to anticancer drugs such as cisplatin, H460 cells were exposed to each of these agents for 48 h, alone and in combination with cisplatin.

ERK1/2 = ERK1/2 activation in dendritic cells; assay type: cell-based; details: low concentration (1 μM)
Excerpt: Total ERK1/2 expression remained unperturbed under all conditions.

H460 cells [2] = assay: Flow cytometry with PI staining (apoptosis rate) after free lipid; assay type: cell-based, human; details: 10 μM lipid, 3 h
Excerpt: There was no statistically significant difference between the cytotoxicities of DSGLA and lipid 1.

[3] = system: B16F10 cells (that stably express luciferase); assay: In vitro luciferase gene silencing; assay type: cell-based; details: 24 h, 37° C., lipid as cationic lipid of the LPD formulation, vs DOTAP and DSGLA, AA vs no AA
Excerpt: We examined the gene silencing effect by siRNA in different compositions. […] Furthermore, the silencing effect in the cells treated with LPD-PEG-AA was much stronger than that of cells treated with LPD-PEG.

B16F10 melanoma cells = assay: Intracellular uptake of fluorescently-labeled siRNA in B16F10 cells; assay type: cell-based; details: 4 h, CY3-siRNA, lipid as cationic lipid of LPD-PEG / LPD-PEG-AA, vs DOTAP, AA vs no AA
Method: FIG. 9 presents fluorescence photographs of B16F10 cells after a 4 h treatment with 3′ CY3-labeled siRNA against an irrelevant target in LPD-PEG or LPD-PEG-AA nanoparticles formulated with the cationic lipid DSAA, DSGLA, or DOTAP.
We post inserted PEGylated lipids onto a LPD formulation, a nonviral vector developed in our lab as a nanocarrier for siRNA delivery, to increase the serum stability. In addition, we also tethered anisamide, a compound that specifically binds to the sigma receptor, to the distal end of PEG as a targeting ligand. […] Furthermore, the fluorescence signal in the cells treated with LPD-PEG-AA was much stronger than that of cells treated with LPD-PEG.

H460 cells [4] = assay: In vitro transfection (pCMV-Luc luciferase reporter gene delivery); assay type: cell-based, human; details: presence of serum, cholesterol co-lipid 1:1, pCMV-Luc, lipid/DNA charge ratios 8:1 to 1:1
Method: RLU/pgram of protein was plotted against the lipid to DNA (+/−) charge ratios. The transfection efficiencies of the lipids were compared to that of commercially available N-(2,3-dioleoyloxy) propyl)-N,N,N-trimethylammonium chloride (DOTAP) and Lipofectamine™ 2000. The transfection values shown are the average of triplicate experiments performed on the same day.
H460 human large-cell lung carcinoma cells were seeded at a density of 20,000 cells per well in a 96-well plate 18-24 h prior to the transfection. Plasmid DNA (0.3 μg) was complexed with varying amounts of lipids (0.9-7.2 nmol) in plain RPMI medium (total volume of 100 μL) for 20 min. The charge ratios were varied from 1:1 to 8:1 (+/−) over these ranges of the lipids. The complexes were then added to the cells. After 3 h of incubation, 100 μL of RPMI with 20% FBS was added to the cells. The reporter gene activity was estimated after 24 h. The cells were washed twice with phosphate-buffered saline (PBS, 100 μL each) and lysed in 100 μL of lysis buffer (0.1 M Tris-HCl, 2 mM EDTA, 0.5% Triton X100, pH 7.8). Care was taken to ensure complete lysis. The cell lysate was then centrifuged at 14,000 rpm for 5 min. […] The protein concentration within the cellular lysates was quantified with the BSA standards from the Micro BSA™ Protein assay kit as supplied by Pierce Chemical Company (Rockford, Ill.). […]

H460 cells [5] = assay: Cellular growth inhibition study (MTT assay)
Method: as §1
H460 cells (1×10^4 per well) were seeded into 12-well plates. Cells were treated with different lipids at various concentrations in serum-containing medium at 37° C. for 72 h. Cell viability was then detected by an MTT assay. Briefly, 100 μL of the MTT solution (15 mg in 50 mL of PBS) was added to each well, and the cells were incubated for 4 h at 37° C. The medium was removed, and the formazan crystals formed in the cells were dissolved in DMSO. Absorbance at 570 nm was measured in an Ultramark Microplate Imaging System. The data are expressed as the percent of viable cells compared to the untreated control cells.
as §2

## CCCCCCCC/C=C\CCCCCCCC(=O)OCC(C[N+](C)(C)C)OC(=O)CCCCCCC/C=C\CCCCCCCC.[Cl-] (stereo not drawn) [DOTAP]
H460 cells [1]; lipid 10 μM
  sensitization of cells to cisplatin: not
ERK1/2
  ERK1/2 activation: increased ERK1/2 activation
H460 cells [2]
  apoptosis rate (flow cytometry with PI staining): 4.7±0.5%

## CCCCCCCCCCCCCCCCCC[N+](C)(CCCCCCCCCCCCCCCCCC)CCNC(=O)[C@@H](N)CCCNC(=N)N [DSAA, N-methyl-N-(2-(arginoylamino)ethyl)-N,N-Dioctadecyl aminium chloride]
[3]
  silencing effect of anti-luciferase siRNA: greater
B16F10 melanoma cells
  uptake of fluorescently-labeled siRNA (fluorescence photographs): much greater

## N.N.[Cl][Pt][Cl] [cisplatin]
H460 cells [1]; cisplatin alone, read-out: IC50 of cisplatin
  IC50: ~12 µM
H460 cells [1]; with lipids 1-3 (10 μM), read-out: IC50 of cisplatin after treatment with lipids 1-3
  IC50: 3.5 µM

## N,N-di-myristoyl-N-methyl-N-2[N′—(N^6-guanidino-L-lysinyl)]aminoethyl ammonium chloride [lipid 1]
H460 cells [4]
  transfection efficiency (luciferase activity, RLU per μg protein): comparable to that of DOTAP and Lipofectamine 2000
H460 cells [5]
  EC50: ~16 µM
H460 cells [2]
  apoptosis rate (flow cytometry with PI staining): 10.4±3.0%

## N,N-dimyristoyl-N-methyl-N-2[N′—(N2, N6-di-guanidino-L-lysinyl)]aminoethyl ammonium chloride [lipid 3]
H460 cells [4]
  transfection efficiency (luciferase activity, RLU per μg protein): comparable to that of DOTAP and Lipofectamine 2000
H460 cells [5]; 20 μM concentration of the corresponding lipids
  order of cytotoxicity: lipid 1>lipid 3>lipid 2>DOTAP
